# Source: patent US9714243B2, “4-pyridinonetriazine derivatives as HIV integrase inhibitors” (Merck Sharp & Dohme Corp., priority 2012, dated 2017)
# Read-outs that look alike come from different tables or passages of the source.
# Tested on: HIV-1 (NL4-3 strain)
# Assay: Assay for inhibition of HIV replication (ViKinG; infected MT4-GFP cells)
# Assay type: cell-based
# Protocol: Assay for inhibition of HIV replication
# MT4-GFP cells (250,000 cells/ml) were bulk-infected with HIV-1 (NL4-3 strain) at low multiplicity of infection (MOI) in RPMI+10% FBS for 24 hours. […] Test compounds were serial-diluted in DMSO on ECHO. The infected MT4-GFP cells were added to a 384-well poly-D-lysine coated black plate with clear bottom in which the diluted test compounds were placed. The cells were seeded at 8,000 cells per well and the final DMSO concentration was 0.4%. The infected cells (Green GFP cells) were quantified at both 24 and 48 hours post incubation using Acumen eX3. Viral reproductive ratio (R0) was determined using the number of infected cells at 48 hours divided by the number of infected cells at 24 hours. Percent viral growth inhibition was calculated by [1−(R−Rtripledrug)/(RDMSO−Rtripledrug)]*100. Compound potency IP or IC50 was determined by a 4-parameter dose response curve analysis.
# [1] = Human immunodeficiency virus 1, NL43, MT4-GFP cells infected with HIV-1 NL4-3, 0% normal human serum (NHS), read-out: ViKinG IP (nM) with 0% NHS
# [2] = Human immunodeficiency virus 1, NL43, MT4-GFP cells infected with HIV-1 NL4-3, 100% normal human serum (NHS), read-out: ViKinG IP (nM) with 100% NHS
# [3] = Human immunodeficiency virus 1, NL43, MT4-GFP cells infected with HIV-1 NL4-3, 10% normal human serum (NHS), read-out: ViKinG IP (nM) with 10% NHS
# [4] = MT4-GFP cells infected with HIV-1 NL4-3, 0% normal human serum (NHS), read-out: ViKinG IP (nM) with 0% NHS
# [5] = MT4-GFP cells infected with HIV-1 NL4-3, 10% normal human serum (NHS), read-out: ViKinG IP (nM) with 10% NHS
# [6] = MT4-GFP cells infected with HIV-1 NL4-3, 100% normal human serum (NHS), read-out: ViKinG IP (nM) with 100% NHS
Compound,IC50 [2] [nM],IC50 [3] [nM],IC50 [4] [nM],IC50 [6] [nM],other results
CCN1C(=O)c2c(O)c(=O)c(-c3nnc(Cc4ccc(F)cc4F)s3)cn2CC12CCC2 [Compound 211],2800,,,,IC50 [1]: 10.3 nM
CCN1C(=O)c2c(O)c(=O)c(-c3nnc(Cc4ccc(F)cc4)s3)cn2N(CC(=O)N(C)C)C1(C)C [Compound 171],673,21,,,
CN1C(=O)c2c(O)c(=O)c(-c3nnc(Cc4ccc(F)cc4F)s3)cn2N(C)C12CCC(C(=O)NC1(C)CC1)CC2 (stereo not shown) [Compound 114],,,4.69,,IC50 [5]: 9.07 nM
CN1C2C(O)CCCN2C(=O)c2c(O)c(=O)c(-c3nnc(Cc4ccc(F)cc4F)s3)cn21 (stereo not shown) [Compound 165],,,5.12,54,
CCN1C(=O)c2c(O)c(=O)c(-c3nnc(Cc4ccc(F)cc4F)s3)cn2N(C)C12CC[C@H](C(=O)OC)[C@H](C)C2 (stereo partly shown) [Compound 30],,,,,IC50 [5]: 13.1 nM
CN1C2CCCN2C(=O)c2c(O)c(=O)c(-c3nnc(Cc4ccc(F)cc4F)s3)cn21 (racemic) [Compound 155],304,48.7,,,
CCN1C(=O)c2c(O)c(=O)c(-c3nnc(Cc4ccc(F)cc4)s3)cn2N(C)C12CCC(CC(=O)N(C)C)CC2 (stereo not shown) [Compound 98],,,,168,IC50 [5]: 32.2 nM
CN1C(=O)c2c(O)c(=O)c(-c3nnc(Cc4ccc(F)cc4F)s3)cn2N(C)C12CCC(C(=O)NCC1(O)CC1)CC2 (stereo not shown) [Compound 123],,,47.1,,IC50 [5]: 103 nM
CCN1C(=O)c2c(O)c(=O)c(-c3nnc(Cc4ccc(F)cc4)s3)cn2N(C)C12CCC(P(=O)(O)O)C2 (stereo not shown) [Compound 87],2890,,,,IC50 [1]: 626 nM
CN1C2COCCN2C(=O)c2c(O)c(=O)c(-c3nnc(Cc4ccc(F)cc4F)s3)cn21 (racemic) [Compound 160],298,22.6,,,
CCOC1CCC2(CC1)Cn1cc(C(=O)NCc3ccc(F)cc3F)c(=O)c(O)c1C(=O)N2CC (stereo not shown) [Compound 182],45.5,,,,IC50 [1]: 4.02 nM
CN1C(=O)c2c(O)c(=O)c(-c3nnc(Cc4ccc(F)cc4F)s3)cn2N(C)C12CCC(C)(CO)CC2 (stereo not shown) [Compound 86],,,6.34,185,IC50 [5]: 94.3 nM
CC1=CCC2(CC1)N(C)C(=O)c1c(O)c(=O)c(-c3nnc(Cc4ccc(F)cc4F)s3)cn1N2C (racemic) [Compound 71],,49.5,,,IC50 [1]: 16.1 nM
CCOC(=O)C1CC2(CC1(C)C)N(CC)C(=O)c1c(O)c(=O)c(-c3nnc(Cc4ccc(F)cc4F)s3)cn1N2C (stereo not shown) [Compound 35],,100,,,
CCN1C(=O)c2c(O)c(=O)c(-c3nnc(Cc4ccc(F)cc4F)s3)cn2N(C)C12CCC(c1n[nH]c(=O)o1)CC2 (stereo not shown) [Compound 34],180,23.6,,,
CN1C(=O)c2c(O)c(=O)c(-c3nnc(Cc4ccc(F)cc4)s3)cn2N(C)C12CCC(O)CC2 (stereo not shown) [Compound 14],,,5.37,198,IC50 [5]: 18.8 nM
CCN1C(=O)c2c(O)c(=O)c(-c3nnc(Cc4ccc(F)cc4F)s3)cn2N(C)C12CCC(C)(OC)CC2 (stereo not shown) [Compound 59],124,,,,IC50 [1]: 8.66 nM
CC1CCC2N1C(=O)c1c(O)c(=O)c(-c3nnc(Cc4ccc(F)cc4F)s3)cn1N2C (stereo not shown) [Compound 156],989,26.7,,,
CN1C(=O)c2c(O)c(=O)c(-c3nnc(Cc4ccc(F)cc4F)s3)cn2N(C)C12CCC(C)(O)CC2 (stereo not shown) [Compound 69],,,22.6,,IC50 [5]: 84.7 nM
CCN1C(=O)c2c(O)c(=O)c(-c3nnc(Cc4ccc(F)cc4F)s3)cn2N(C)C12CCC(OCCOCCOC)CC2 (stereo not shown) [Compound 67],,,12.5,160,
CCN1C(=O)c2c(O)c(=O)c(-c3nnc(Cc4ccc(F)cc4F)s3)cn2N(C)C12CCC(C(F)(F)F)CC2 (stereo not shown) [Compound 49],,,,406,IC50 [1]: 19.8 nM
CN1C2CCCCCN2C(=O)c2c(O)c(=O)c(-c3nnc(Cc4ccc(F)cc4F)s3)cn21 (racemic) [Compound 159],,121,,,
CCN1C(=O)c2c(O)c(=O)c(-c3nnc(Cc4ccc(F)cc4F)s3)cn2N(C)C12CCC(C(=O)N(C)CC(F)(F)F)CC2 (stereo not shown) [Compound 102],170,,,,IC50 [1]: 12.2 nM
COC1CCC2(CC1)Cn1cc(-c3nnc(Cc4ccc(F)cc4F)s3)c(=O)c(O)c1C(=O)N2C (stereo not shown) [Compound 213],,,5.89,35.8,
CCN1C(=O)c2c(O)c(=O)c(-c3nnc(Cc4ccc(F)cc4F)s3)cn2N(C)C12CCC(C(F)(F)F)CC2 (stereo not shown) [Compound 50],,,25.6,5380,
